# Results as given in ChEMBL document CHEMBL5131499, “Design, synthesis and glycosidase inhibition of C-4 branched LAB and DAB derivatives” (Eur J Med Chem, 2022).
# Experiments:
# Aspergillus niger = experiment: Inhibition of Aspergillus niger amyloglucosidase assessed as release of p-nitrophenol at 1000 uM using p-nitrophenyl glycoside as substrate by spectrometric assay relative to control
# Prunus dulcis = experiment: Inhibition of almond beta-glucosidase assessed as release of p-nitrophenol at 1000 uM using p-nitrophenyl glycoside as substrate by spectrometric assay relative to control
# [1] = target: T1, Tissue alpha-L-fucosidase (Bos taurus) (UniProt Q2KIM0); experiment: Inhibition of bovine kidney alpha-L-fucosidase assessed as release of p-nitrophenol at 1000 uM using p-nitrophenyl glycoside as substrate by spectrometric assay relative to control
# T1 sequence (whole entry): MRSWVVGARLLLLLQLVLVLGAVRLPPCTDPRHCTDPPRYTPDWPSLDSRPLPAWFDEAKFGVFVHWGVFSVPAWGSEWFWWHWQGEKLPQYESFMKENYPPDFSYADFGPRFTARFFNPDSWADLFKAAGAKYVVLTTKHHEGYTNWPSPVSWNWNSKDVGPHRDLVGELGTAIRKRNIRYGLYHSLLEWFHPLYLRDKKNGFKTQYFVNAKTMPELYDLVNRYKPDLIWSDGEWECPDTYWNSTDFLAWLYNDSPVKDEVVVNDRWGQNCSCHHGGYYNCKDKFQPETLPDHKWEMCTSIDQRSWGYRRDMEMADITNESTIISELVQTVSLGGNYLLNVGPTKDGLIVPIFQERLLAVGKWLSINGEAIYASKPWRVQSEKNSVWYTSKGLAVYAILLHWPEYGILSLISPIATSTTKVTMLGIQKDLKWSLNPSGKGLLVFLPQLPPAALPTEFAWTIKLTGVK
# [2] = target: Sucrase-isomaltase, intestinal (Rattus norvegicus, UniProt P23739); experiment: Inhibition of rat intestinal sucrase assessed as release of p-nitrophenol using p-nitrophenyl glycoside as substrate by spectrometric assay
# Penicillium decumbens = experiment: Inhibition of Penicillium decumbens alpha-L-rhamnosidase assessed as release of p-nitrophenol at 1000 uM using p-nitrophenyl glycoside as substrate by spectrometric assay relative to control
# Bos taurus [3] = species on record: Bos taurus; experiment: Inhibition of bovine liver beta-glucronidase assessed as release of p-nitrophenol at 1000 uM using p-nitrophenyl glycoside as substrate by spectrometric assay relative to control
# [4] = target: T2, Lysosomal alpha-glucosidase (Homo sapiens, UniProt P10253); experiment: Inhibition of human lysosomal alpha glucosidase assessed as release of p-nitrophenol using p-nitrophenyl glycoside as substrate by spectrometric assay
# Rattus norvegicus = species on record: Rattus norvegicus; experiment: Inhibition of rat intestinal alpha-trehalase assessed as release of p-nitrophenol at 1000 uM using p-nitrophenyl glycoside as substrate by spectrometric assay relative to control
# [5] = target: T3, Alpha-mannosidase (Canavalia ensiformis) (UniProt C0HJB3); experiment: Inhibition of jack bean alpha-mannosidase assessed as release of p-nitrophenol at 1000 uM using p-nitrophenyl glycoside as substrate by spectrometric assay relative to control
# T3 sequence (whole entry): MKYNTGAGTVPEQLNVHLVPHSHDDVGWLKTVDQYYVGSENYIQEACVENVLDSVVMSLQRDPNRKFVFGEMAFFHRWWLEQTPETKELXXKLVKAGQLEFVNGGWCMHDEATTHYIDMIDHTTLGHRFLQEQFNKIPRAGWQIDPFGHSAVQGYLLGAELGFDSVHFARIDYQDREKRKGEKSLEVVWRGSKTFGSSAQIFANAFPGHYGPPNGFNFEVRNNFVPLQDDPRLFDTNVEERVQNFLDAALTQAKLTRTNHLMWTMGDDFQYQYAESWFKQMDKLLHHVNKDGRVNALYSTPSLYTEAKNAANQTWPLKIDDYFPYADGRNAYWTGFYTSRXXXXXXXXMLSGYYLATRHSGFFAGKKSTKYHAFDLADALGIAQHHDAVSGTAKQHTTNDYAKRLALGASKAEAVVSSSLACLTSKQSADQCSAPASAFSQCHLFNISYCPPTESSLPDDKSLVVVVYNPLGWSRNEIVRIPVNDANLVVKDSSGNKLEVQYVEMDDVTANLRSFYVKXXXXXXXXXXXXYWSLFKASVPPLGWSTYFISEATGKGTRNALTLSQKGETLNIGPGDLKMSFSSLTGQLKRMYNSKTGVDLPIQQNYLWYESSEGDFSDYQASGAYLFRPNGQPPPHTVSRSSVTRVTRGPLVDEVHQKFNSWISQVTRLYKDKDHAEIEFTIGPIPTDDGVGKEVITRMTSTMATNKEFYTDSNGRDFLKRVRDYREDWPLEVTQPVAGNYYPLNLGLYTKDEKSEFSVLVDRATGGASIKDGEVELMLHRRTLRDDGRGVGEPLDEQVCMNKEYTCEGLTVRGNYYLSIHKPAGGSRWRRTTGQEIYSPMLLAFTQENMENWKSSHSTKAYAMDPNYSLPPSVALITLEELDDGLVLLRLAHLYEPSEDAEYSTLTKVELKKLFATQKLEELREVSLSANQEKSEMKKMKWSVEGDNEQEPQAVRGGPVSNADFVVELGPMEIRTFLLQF
# Bos taurus [6] = species on record: Bos taurus; experiment: Inhibition of bovine liver beta-galactosidase assessed as release of p-nitrophenol at 1000 uM using p-nitrophenyl glycoside as substrate by spectrometric assay relative to control
# Sus scrofa = species on record: Sus scrofa; experiment: Inhibition of porcine kidney alpha-trehalase assessed as release of p-nitrophenol at 1000 uM using p-nitrophenyl glycoside as substrate by spectrometric assay relative to control
# [7] = Inhibition of yeast alpha-glucosidase assessed as release of p-nitrophenol using p-nitrophenyl glycoside as substrate by spectrometric assay; set-up: species or system Saccharomyces cerevisiae
# [8] = Inhibition of rice alpha-glucosidase assessed as release of p-nitrophenol using p-nitrophenyl glycoside as substrate by spectrometric assay; set-up: species or system Oryza sativa
# Helix pomatia = experiment: Inhibition of snail beta-mannosidase assessed as release of p-nitrophenol at 1000 uM using p-nitrophenyl glycoside as substrate by spectrometric assay relative control
# Bos taurus [9] = species on record: Bos taurus; experiment: Inhibition of bovine liver beta-glucosidase assessed as release of p-nitrophenol at 1000 uM using p-nitrophenyl glycoside as substrate by spectrometric assay relative to control
# Escherichia coli = experiment: Inhibition of Escherichia coli beta-glucuronidase assessed as release of p-nitrophenol at 1000 uM using p-nitrophenyl glycoside as substrate by spectrometric assay relative to control
# [10] = target: Alpha-galactosidase (Coffea arabica) (UniProt Q42656); experiment: Inhibition of coffee beans alpha-galactosidase assessed as release of p-nitrophenol at 1000 uM using p-nitrophenyl glycoside as substrate by spectrometric assay relative to control
# [11] = target: T2, Lysosomal alpha-glucosidase; experiment: Inhibition of human lysosomal alpha glucosidase assessed as release of p-nitrophenol at 1000 uM using p-nitrophenyl glycoside as substrate by spectrometric assay relative to control
# Oryza sativa = experiment: Inhibition of rice alpha-glucosidase assessed as release of p-nitrophenol at 1000 uM using p-nitrophenyl glycoside as substrate by spectrometric assay relative to control
# Sucrase-isomaltase, intestinal, sequence (P23739 1-1013 limits assumed): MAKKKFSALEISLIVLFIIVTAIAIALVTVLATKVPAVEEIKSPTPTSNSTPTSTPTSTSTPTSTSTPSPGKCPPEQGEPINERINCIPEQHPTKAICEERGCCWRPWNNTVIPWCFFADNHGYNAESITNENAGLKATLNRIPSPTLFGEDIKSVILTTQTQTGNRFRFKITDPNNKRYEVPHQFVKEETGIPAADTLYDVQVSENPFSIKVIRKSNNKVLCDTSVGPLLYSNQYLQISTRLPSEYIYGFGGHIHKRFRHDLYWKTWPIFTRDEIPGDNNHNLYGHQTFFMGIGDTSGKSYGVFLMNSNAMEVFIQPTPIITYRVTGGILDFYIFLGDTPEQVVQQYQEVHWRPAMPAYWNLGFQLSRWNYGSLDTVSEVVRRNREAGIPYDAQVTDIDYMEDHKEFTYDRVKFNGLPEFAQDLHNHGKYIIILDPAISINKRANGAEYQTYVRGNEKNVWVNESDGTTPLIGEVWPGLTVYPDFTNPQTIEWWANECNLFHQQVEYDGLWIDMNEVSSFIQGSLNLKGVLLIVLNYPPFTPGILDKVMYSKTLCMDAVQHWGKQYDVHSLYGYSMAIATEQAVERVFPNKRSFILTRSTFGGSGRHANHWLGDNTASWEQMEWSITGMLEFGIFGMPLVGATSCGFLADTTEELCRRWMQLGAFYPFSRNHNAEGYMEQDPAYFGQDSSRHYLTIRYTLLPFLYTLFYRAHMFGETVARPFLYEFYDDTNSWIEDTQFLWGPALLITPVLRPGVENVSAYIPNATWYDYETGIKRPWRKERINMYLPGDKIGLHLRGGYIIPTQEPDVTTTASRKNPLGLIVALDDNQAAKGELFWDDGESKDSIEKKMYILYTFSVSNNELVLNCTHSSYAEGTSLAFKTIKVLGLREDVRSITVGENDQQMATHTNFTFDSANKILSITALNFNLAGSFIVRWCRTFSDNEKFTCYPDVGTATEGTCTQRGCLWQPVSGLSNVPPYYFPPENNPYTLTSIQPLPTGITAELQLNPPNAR
# Sucrase-isomaltase, intestinal, sequence (P23739 1014-1841 limits assumed): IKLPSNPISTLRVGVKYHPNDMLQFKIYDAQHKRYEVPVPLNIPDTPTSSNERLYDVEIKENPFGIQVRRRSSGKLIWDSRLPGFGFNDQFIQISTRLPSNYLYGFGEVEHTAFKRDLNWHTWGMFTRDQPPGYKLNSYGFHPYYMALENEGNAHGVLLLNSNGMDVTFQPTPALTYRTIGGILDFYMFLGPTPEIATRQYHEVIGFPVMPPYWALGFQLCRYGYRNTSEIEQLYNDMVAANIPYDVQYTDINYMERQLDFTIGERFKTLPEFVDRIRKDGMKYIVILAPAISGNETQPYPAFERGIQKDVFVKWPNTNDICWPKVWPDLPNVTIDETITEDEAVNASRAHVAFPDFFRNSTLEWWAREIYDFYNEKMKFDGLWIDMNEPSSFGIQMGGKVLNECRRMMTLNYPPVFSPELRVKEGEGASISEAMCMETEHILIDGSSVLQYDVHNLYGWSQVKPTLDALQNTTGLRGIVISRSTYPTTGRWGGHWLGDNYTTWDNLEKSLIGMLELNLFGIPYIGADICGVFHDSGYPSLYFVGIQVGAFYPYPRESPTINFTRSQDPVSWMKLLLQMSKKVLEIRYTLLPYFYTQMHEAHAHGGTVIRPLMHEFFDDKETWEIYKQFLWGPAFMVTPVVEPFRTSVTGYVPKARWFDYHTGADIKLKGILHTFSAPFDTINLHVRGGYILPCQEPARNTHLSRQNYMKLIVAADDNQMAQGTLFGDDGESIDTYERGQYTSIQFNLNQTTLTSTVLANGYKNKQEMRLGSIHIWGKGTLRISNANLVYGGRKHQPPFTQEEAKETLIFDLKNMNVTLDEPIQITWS
# Alpha-galactosidase (Coffea arabica), sequence (Q42656 16-378 limits assumed): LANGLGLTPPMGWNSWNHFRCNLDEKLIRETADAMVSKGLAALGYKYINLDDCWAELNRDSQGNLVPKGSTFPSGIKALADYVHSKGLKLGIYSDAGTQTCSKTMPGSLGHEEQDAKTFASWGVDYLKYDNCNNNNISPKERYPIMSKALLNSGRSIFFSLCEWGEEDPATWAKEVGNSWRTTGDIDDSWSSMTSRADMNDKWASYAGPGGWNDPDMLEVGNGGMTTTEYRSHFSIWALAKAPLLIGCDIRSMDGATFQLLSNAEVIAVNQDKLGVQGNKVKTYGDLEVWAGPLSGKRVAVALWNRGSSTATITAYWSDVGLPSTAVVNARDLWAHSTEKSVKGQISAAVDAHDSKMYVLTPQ
inhibition (Aspergillus niger) [%],inhibition (Prunus dulcis) [%],inhibition [1] [%],IC50 [2] [µM],inhibition (Penicillium decumbens) [%],inhibition (Bos taurus [3]) [%],IC50 [4] [µM],inhibition (Rattus norvegicus) [%],inhibition [5] [%],inhibition (Bos taurus [6]) [%],inhibition (Sus scrofa) [%],IC50 [7] [µM],IC50 [8] [µM],inhibition (Helix pomatia) [%],inhibition (Bos taurus [9]) [%],inhibition (Escherichia coli) [%],inhibition [10] [%],inhibition [11] [%],inhibition (Oryza sativa) [%],SMILES
1.4,0,0,0.95,0,19.4,491,10,0,16.4,8.3,60,817,0,11.3,0,–,–,–,OC[C@]1(c2cccc(F)c2)NC[C@H](O)[C@H]1O
9.2,8.7,0,0.74,5.5,19.9,372,0,2.2,20.4,4.5,64,337,0,10.8,0.4,1.2,–,–,OC[C@@]1(c2ccc(O)cc2)NC[C@@H](O)[C@@H]1O
8.3,7.8,0,1.7,0,10.7,776,0,0,38.9,12.9,9.8,758,0,30,0,1.6,–,–,COc1cccc([C@]2(CO)NC[C@@H](O)[C@@H]2O)c1
0,4.6,0,2.8,0,10.9,–,27,6.6,0,4,305,–,0,0.4,3,0,8.3,6.4,OC[C@]1(c2ccc(F)cc2)NC[C@H](O)[C@H]1O
11.5,14.8,0,0.18,4.5,12.6,376,1.2,3.4,40.3,12.9,12,285,0,27.6,1.8,3.6,–,–,OC[C@]1(c2ccc(O)cc2)NC[C@H](O)[C@H]1O
7.8,5.2,3.8,2.5,0,18.4,–,14.1,0,38.1,0,388,–,0,33,0,0,18.5,19.5,OC[C@@]1(c2c(F)c(F)c(F)c(F)c2F)NC[C@@H](O)[C@@H]1O
8.3,8.7,0,3.4,7.4,8.7,–,12.9,0,35,0,212,–,0,29.1,0,1.6,21.3,29.1,Cc1ccc([C@]2(CO)NC[C@@H](O)[C@@H]2O)cc1
5,1.7,1.6,2.2,5.5,8.2,–,0.6,0,26.5,3.8,19,–,0,12.8,0,1.6,46,47.3,COc1cccc([C@@]2(CO)NC[C@H](O)[C@H]2O)c1
4.4,4.6,0,4.1,2,3.6,–,40.2,6.6,3.7,2,528,–,0,3.8,2.6,–,6.9,0,OC[C@]1(c2c(F)c(F)c(F)c(F)c2F)NC[C@H](O)[C@H]1O
6.4,0,0.5,2.5,0,23.3,–,0,0,19,0,64,–,0,15.8,0,0,27.1,32.3,COc1ccc([C@@]2(CO)NC[C@H](O)[C@H]2O)cc1OC
–,< 50,–,–,–,–,–,–,–,–,–,–,–,–,< 50,–,–,–,–,OC[C@@H]1NC[C@H](O)[C@H]1O
0.5,0,0,4.1,0,17.5,–,0,0,24.3,0.8,243,–,0,22.2,0,0,11.1,11.4,COc1ccc([C@]2(CO)NC[C@@H](O)[C@@H]2O)cc1OC
